In patent publication US20080207532A1, “Use of Nordihydroguaiaretic Acid Derivatives in the Treatment of Drug Resistant Cancer, Viral and Microbial Infection” (Johns Hopkins University, priority 2004, published 2008):
pIC50: −log10 of the molar value. Several values for one entry are separate records, joined by “and”; a condition that tells them apart may be missing. Equal values may be shown once. Read-outs that look alike come from different tables or passages of the source.

Key:
MCF-7 cells = assay: MTT cell proliferation assay, MCF-7 cells in culture; type: cell-based, human; details: 72 hours
Method: (§1) MCF-7 cells (a human mammary carcinoma cell line, obtainable from the ATCC P.O. Box 1549, Manassas, Va. 20108) were seeded into 24-well plates at 1.5×10^4 cells/well in 500 μl of Dulbecco's modified Eagle's medium (DMEM) containing 10% fetal bovine serum (FBS) and the antibiotics penicillin and streptomycin. Varying concentrations of M4N were added the next day. After incubation for an additional 3 days, cell proliferation was assessed by the MTT assay. […] The mice were assigned to a treatment group that received M4N dissolved in a 6% Cremaphor EL, 6% ethanol and 88% saline, and to a control group that received the vehicle only. […] Mice received a single daily 100 μL intraperitoneal (i.p.) injection containing 2 mg of M4N for 3 weeks. The control mice received an equal volume of the vehicle. […] The results from the individual mice were combined and the average tumor volume was determined. Statistical significance of the mean differences in tumor volume was assessed by Student's t-test.

NCI/ADR-RES cells [1] = assay: cell proliferation, NCI/ADR-RES cells in culture; type: cell-based, human; details: 72 hours
MCF-7 xenografts = MCF-7 xenografts in nude mice, M4N i.p. or oral; type: in vivo; details: 21 days systemic treatment, IP injection daily or oral feeding in food balls
Method: as §1

NCI/ADR-RES xenografts = NCI/ADR-RES xenografts in nude mice, M4N i.p. or oral; type: in vivo; details: 21 days systemic treatment, IP injection daily or oral feeding in food balls
Method: as §1

NCI/ADR-RES cells [2] = assay: SRB cytotoxicity assay with median-effect / combination index analysis; type: cell-based, human; details: for pIC50: NCI/ADR-RES
Method: The multidrug resistant cell line, NCI/ADR-RES, was obtained from the DTP Human Tumor Cell Line Screen (Developmental Therapeutics Program, NCI). Both cell lines were maintained in Dulbecco's modified Eagle's medium supplemented with 10% fetal bovine serum and the antibiotics penicillin and streptomycin. […] Stocks of M4N and paclitaxel (Sigma-Aldrich, St. Louis, Mo.) were prepared in dimethyl sulfoxide (DMSO) and added to the cell culture medium so that the final concentration of DMSO was one percent. Aqueous stocks of Dox (Sigma-Aldrich) were prepared and filter sterilized before dilution into growth medium.
NCI/ADR-RES cells were seeded at a density of 2×10^4 cells per well in 24 well plates and 24 h later the growth medium was supplemented with M4N, Dox, paclitaxel or combinations of M4N with Dox or M4N with paclitaxel. MAN was used at concentrations between 1.5 and 48 μM. For the combination of MAN and Dox a constant molar ratio of 2.4:1 (M4N:Dox) was used and for M4N and paclitaxel the ratio was 20:1 (M4N:paclitaxel). Three days after drug addition cytoxicity was assessed with the SRB assay (14) with 540 and 690 nm (reference) absorbance measured with a Power Wave 200 microplate reader (Bio-Tek Instruments, Winooski, Vt.).
The combination index (CD isobologram method of Chou and Talalay (16, 17, 18, 19) which is based on the median effect principle, was used to calculate synergism or antagonism for the combined drug effects. Dose-effect curves for each drug, singly and in combination, in serially-diluted concentrations were plotted using the median-effect equation and plot (18, 20) and the CI equation and plot (19). CI values at different effect and dose levels and isobolograms were generated automatically using the computer software CompuSyn (20). With this method, additive, synergistic or antagonistic effects are indicated by CI values of 1, <1, and >1, respectively. Comparison of the ratio of doses required to reach a given effect level for each single drug and the drugs in combination was used to determine the dose-reduction index (DRI).

MDR1 mRNA = assay: RT-PCR of MDR1 mRNA in NCI/ADR-RES cells; type: cell-based, human; details: 20 μM M4N, three days
Method: Total RNA was isolated using the Trizol Reagent (Invitrogen, Carlsbad, Calif.). RT-PCR was carried out with the Superscript II One-Step RT-PCR system with Platinum Taq DNA Polymerase (Invitrogen) according to the manufacturer's protocol using oligonucleotide primers specific for MDR1: […]
The RT-PCR products were separated by agarose gel electrophoresis and stained with ethidium bromide. Relative band intensities were quantified by ImageJ software (NIH, Bethesda, Md.).
We next examined the effect of M4N on MDR1 gene expression to determine whether the observed synergy between M4N and Dox and paclitaxel in multidrug resistant cells is the result of reversal of the MDR phenotype. We postulated that M4N, through its ability to inhibit Sp1 binding, might down regulate MDR1 gene expression. To examine this possibility, NCI/ADR-RES cells were exposed to 0, 5, 10 and 20 μM M4N for three days, after which total RNA and protein were examined for levels of MDR1 mRNA and Pgp. […] The levels of Pgp were normalized to cyclin B1, whose expression, according to our previous results, is unaffected by M4N (4, 5).

[3] = tested on: NCI/ADR-RES multidrug resistant breast cancer xenografts; assay: combination therapy against NCI/ADR-RES xenografts in nude mice; details: two weeks
Method: Nude mice bearing NCI/ADR-RES multidrug resistant breast cancer xenografts were used as a model for combination therapy to further examine synergy between M4N and paclitaxel.
T-cell deficient female nude (nu/nu) mice, 5-6 weeks of age, were purchased from Charles River Laboratories (Wilmington, Mass.) and were housed in a pathogen-free room. All experiments involving the mice were carried out in accordance with the Johns Hopkins University Animal Care and Use Committee guideline. The mice were implanted subcutaneously in both flanks with 1×10^6 NCI/ADR-RES cells suspended in Hank's balanced salt solution (HBSS). […] For intraperitoneal (i.p.) administration, M4N, maltose-M3N and paclitaxel were dissolved in a recently developed reduced cremophor solution containing 20% (v) dehydrated ethanol, 20% (v) Cremophor EL, PEG 300, <11% (v) Tween 80 (22). Daily injections of 0.05 ml were performed for each drug and drug combination.
Tumors were measured in two perpendicular dimensions once every seven days, and the tumor volumes were calculated according to the following formula: […]
where a is the width of the tumor (smaller diameter) and b is the length (larger diameter) (23). The mean tumor volume and standard error were calculated for each treatment group. Relative mean tumor volumes, (V/V0), where V is the mean tumor volume at a particular time and V0 is the mean tumor volume at day 0 (23), were determined and used to assess tumor growth inhibition (T/C value) using the following equation:
T/C(%)=Relative Mean Tumor Volume of treated/Relative Mean Volume of control×100.
The NCI standard for the minimal level for antitumor activity (T/C≦42%) was adopted (25). At the termination of the experiment the tumors were excised and fixed in formaldehyde. Tissue samples were then sent to Paragon Bioservices for histology and immunohistochemistry using antibodies against human P-glycoprotein (Pgp).
Two dosage regimens of M4N and paclitaxel, both with a constant molar ratio of 20:1 (M4N:paclitaxel), were employed as determined by in vitro testing to be synergistic as shown in Table 1. The 8 and 16 μmol m^2 doses of pactitaxel were submaximal based on values from other studies (22) and the M4N doses of 160 and 320 μmol/m^2 were arrived at by decreasing the maximum tolerated dose used in our previous study with MCF-7 breast cancer xenografts (5). An additional NDGA derivative was also tested. Maltose-M3N was developed as a water soluble alternative to M4N, however for consistency it was dissolved in the same reduced cremophor solvent system as M4N and paclitaxel for this study.

solubility in water = type: physicochemical
MCF-7 = details: MCF-7; read-out: IC50 from previous studies; cited from earlier work
[4] = mouse, IP, IV and oral; cited from earlier work
[5] = dogs and rabbits, subcutaneous, intravaginal and IV formulations; cited from earlier work
[6] = clinical trials to date; cited from earlier work
[7] = M4N/Dox combination 2.4:1, NCI/ADR-RES
[8] = M4N/paclitaxel combination 20:1, NCI/ADR-RES
[9] = higher regimen: M4N or Mal-M3N 320, Px 16 μmoles/m^2, i.p. daily
[10] = lower regimen: M4N 160, Px 8 μmoles/m^2, i.p. daily

COc1ccc(C[C@@H](C)[C@@H](C)Cc2ccc(OC)c(OC)c2)cc1OC [M4N, tetra-o-methyl nordihydroguaiaretic acid]
M4N required to achieve a total cell arrest (MCF-7 cells): 20 µM
M4N required to achieve a total cell arrest (NCI/ADR-RES cells [1]): 40 µM
tumor sizes of xenografts (MCF-7 xenografts): greatly reduced the tumor sizes
tumor sizes of xenografts (NCI/ADR-RES xenografts): greatly reduced the tumor sizes
DRI value at ED75 (NCI/ADR-RES cells [2]; [7]): 5.94
DRI value at ED90 (NCI/ADR-RES cells [2]; [7]): 24.26
DRI value at ED95 (NCI/ADR-RES cells [2]; [7]): 63.16
DRI value at ED75 (NCI/ADR-RES cells [2]; [8]): 3.98
DRI value at ED90 (NCI/ADR-RES cells [2]; [8]): 5.76
DRI value at ED95 (NCI/ADR-RES cells [2]; [8]): 7.40
pIC50 (NCI/ADR-RES cells [2]; three days, combinations at molar ratio 2.4:1 (M4N:Dox) or 20:1 (M4N:paclitaxel), given as M4N + second drug, read-out: Dm, median effect dose (concentration that inhibits cell growth by 50%)): 5.04 and 5.09
pIC50 (NCI/ADR-RES cells [2]; single agent, read-out: average IC50): 5.06
level of MDR1 mRNA, of the untreated value, normalized to GAPDH (MDR1 mRNA): 36.3%
Deaths [3, 9]: 0/7
Relative Mean Tumor Volume [3, 9]: 1.33
T/C % [3, 9]: 50.8%
Deaths [3, 10]: 0/7
Mean Body Weight Change [3, 10]: +0.2 g/mouse
Relative Mean Tumor Volume [3, 10]: 1.70
T/C % [3, 10]: 64.9%
solubility in aqueous solution (solubility in water): limited solubility
pIC50 (MCF-7): ~5.15
level of drug in the blood [4]: extremely low and only presents transiently
amount of drug in the blood [5]: barely detectable
systemic side effects (gastrointestinal problems, anemia, hair loss) [6]: has not caused the systemic side effects
